Consider nine molecules from publication PMC6135396, “Repurposing antimalarial aminoquinolines and related compounds for treatment of retinal neovascularization” (PLoS ONE, 2018).

Series [1] addresses T1, APJ (Homo sapiens, UniProt P35414).
T1 sequence (P35414 1-380): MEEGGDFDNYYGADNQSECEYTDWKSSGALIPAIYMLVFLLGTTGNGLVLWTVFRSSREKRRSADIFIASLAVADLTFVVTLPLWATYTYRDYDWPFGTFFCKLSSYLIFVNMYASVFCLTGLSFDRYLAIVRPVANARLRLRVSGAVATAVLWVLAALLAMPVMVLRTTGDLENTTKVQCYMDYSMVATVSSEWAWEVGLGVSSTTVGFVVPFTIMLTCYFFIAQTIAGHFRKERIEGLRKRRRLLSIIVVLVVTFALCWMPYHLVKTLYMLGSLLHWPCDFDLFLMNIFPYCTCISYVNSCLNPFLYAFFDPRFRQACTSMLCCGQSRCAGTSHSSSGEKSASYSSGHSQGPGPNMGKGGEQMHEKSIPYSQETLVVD
Briefly: APJ cAMP assay (primary, cAMP HitHunter, CHO-K1-APJ cells). It counts as cell-based. On the set-up: host or cells: CHO-K1 (CHO-K1-APJ / CHO-k1-AGTRL1). The method, then: (§1) To identify small-molecule antagonists of the apelin receptor (APJ) we interrogated the SBP compound file of ~425,000 compounds using CHO-k1-AGTRL1 cells overexpressing human APJ and a competitive immunoassay of intracellular cAMP [59]. The compound file was screened at a concentration of 10 μM. For all 333 plates assayed, the average Z-factor = 0.68 and the average S/B = 8.2, indicating a robust assay performance. […] There were 2550 compounds that met this criterion, representing a hit rate of ~0.6%. […] Included in this hit set was a series of aminoquinolines, exemplified by compound 1 (Fig 1B). […] As part of an initial hit-validation strategy, these compounds and three other commercially available analogs were purchased for further testing. The purity and identify of all compounds were confirmed by NMR and LC-MS, and they were subsequently retested in a battery of cell-based assays of APJ function and counter screens. […] (Fig 1D).
(§2) PathHunter™ GPCR Arrestin and cAMP Hunter™ cell lines (DiscoveRx Corp., Fremont, CA) were used to assay G-protein-dependent signaling and β-arrestin recruitment to APJ. CHO-K1 cells stably expressing APJ (CHO-K1-APJ) or AT1 (CHO-K1-AT1) with β-arrestin/β-galactosidase enzyme fragment complementation constructs were maintained in HAM's F-12 medium (Hyclone, Logan, UT) supplemented with 10% FBS, 1X Penicillin-Streptomycin-Glutamine (Invitrogen; Carlsbad, CA), 300 μg/ml hygromycin (EMD Biosciences, San Diego, CA), and 800 μg/ml Geneticin (Cellgro, Manassas, VA). Primary Human Retinal Microvascular Endothelial Cells (HRECs) were purchased from Cell Systems (Kirkland, WA) and maintained in Complete Classic Medium with CultureBoost-R™ (Cell Systems). Parent CHO-K1 cells were obtained from ATCC and maintained in HAM’s F-12 medium supplemented with 10% FBS, and1X Penicillin-Streptomycin-Glutamine (Invitrogen; Carlsbad, CA). All cells were incubated at 37°C (5% CO2, 95% relative humidity) and maintained at less than 70% to 80% confluence (approximately 75,000 cells/cm^2). Cell heterologously expressing APJ or AT1 were not used after 10 passages. HRECs were not used in any experiments after five passages.
(§3) All reagents unless otherwise specified are components of the cAMP HitHunter (DiscoveRx) kit. Ligand Buffer + 60 μM Forskolin (Cayman Chemical, Ann Arbor, MI) was made fresh on the day of the experiment and used for the dilution of positive and negative controls as well as all peptides. CHO-K1-APJ cells were dispensed into a 1536-well tissue culture microplate (Corning, Corning, NY) using a Multidrop at a seeding density of 1,000 cells/well and returned to the incubator. The next day, the cell culture media was removed and replaced with 15 μl/well of assay buffer (1X HBSS, 10 mM HEPES) containing anti-cAMP antibody (DiscoveRx). […] Plates were incubated at room temperature in the dark for 3 hours prior to chemiluminescence detection on an EnVision (Perkin Elmer) using a counting time of 1 s/well.

Series [2] relates to human retinal microvascular endothelial cells (HRECs). Briefly: In vitro HREC tube formation assay. It counts as cell-based. The conditions noted are these: for Stimulation of HREC endothelial tube formation: factor added alone. The method, then:
In vitro tube formation assays were carried out as previously described. Briefly, near confluent microvascular endothelial cells were pretreated with VEGF (100 ng/ml) for 2 h and then treated for 24 h with test compounds at serial concentrations, as indicated. Cells without VEGF treatment or with VEGF only were used as control. The cells were then detached and plated sparsely (2.5 ×10^4/well) on 24-well plates coated with 12.5% (v/v) Matrigel (BD, Franklin Lakes, NJ) and left overnight. The medium was then aspirated and 250 μl/well of 12.5% Matrigel was overlaid on the cells for 2 h to allow the polymerization of Matrigel, followed by addition of 500 μl/well of basal medium MCD131 with 10% fetal calf serum (FCS) for 24 h. The following day, the culture plates were observed under a phase contrast microscope and photographed at random in five fields (×10). The tubule length (mm/mm^2) per microscope field was quantified.

Series [3] deals with HRECs. The conditions noted are these: VEGF 100 ng/mL, Ap13 10 nM. How it is done: The proliferation of HRECs was monitored by the crystal violet assay as described in our previous publication. […] After washing three times with PBS, the plates were air-dried and the remaining stain was dissolved in, 10% acetic acid and absorbance measured with a microplate reader at 540 nm.

The subject of series [4] is HRECs. Conditions: VEGF 100 ng/mL, Ap13 10 nM. How it is done:
Migration was determined by the QCM™ chemotaxis 5 μm 96-well cell migration assay (Chemicon International, Inc.) as per the manufacture’s protocol. […] After 16 h, cells that migrated to the basal side of the chamber insert membrane were detached, lysed and detected using CyQuant GR™ dye. Migration is expressed as percent increase in migrated cells compared to untreated cells.
The source holds these as a separate data set.

The target of series [5] is T1, APJ. Description: APJ β-arrestin recruitment assay (PathHunter, CHO-K1-APJ). The class given is cell-based. The arrangement: β-galactosidase enzyme fragment (enzyme fragment complementation construct); host or cells: CHO-K1 (CHO-K1-APJ, PathHunter). Conditions: for IC50: secondary assay, Ap13-mediated β-arrestin recruitment. How it is done:
as §2
(§4) CHO-K1 cells engineered to over-express APJ or AT1, and β-arrestin were removed from flasks using TrypLE Select (1X), no phenol red (Life Technologies, Grand Island, NY), centrifuged, and resuspended in CP2 Reagent (DiscoveRx, Fremont, CA). Cells were counted using a Countess Automated Cell Counter (Invitrogen, Carlsbad, CA) and 5,000 cells/well were plated in a 384-well tissue culture treated microplate (Corning, Corning, NY). All plates were incubated overnight at 37°C, 5% CO2 in a final volume of 25 μl/well. Following incubation, 5 μl of peptides (10-point concentrations) and controls prepared in ligand buffer (1X HBSS, 10 mM HEPES, 0.1% BSA) were added to cells and incubated at 37°C for 1.5 h. Using a Multidrop Combi Reagent Dispenser (Thermo Scientific), 12 μl of Detection Reagent (DiscoveRx) comprised of substrate and co-factors was added to all wells and incubated at room temperature in the dark for 1 h. Chemiluminescent signal was detected on an EnVision Multi-label plate reader (Perkin Elmer) using a counting time of 1 s/well. The robustness of data from each screening plate and run was monitored by Z’ and Signal Window calculation.
(Activated receptors often draw arrestin, which recruitment assays turn into a signal.)

A further series has as its system parental CHO-K1 cells. Briefly: Parental cAMP counter assay (cells lacking APJ). It counts as cell-based. Conditions: Cricetulus griseus. The method, then: as §1, §2, §3
Series [6] addresses T2, angiotensin II type 1 (AT1) (Homo sapiens, UniProt P30556).
T2 construct: β-galactosidase enzyme fragment (enzyme fragment complementation construct); host or cells: CHO-K1 (CHO-K1-AT1, PathHunter)
T2 sequence (P30556 1-359): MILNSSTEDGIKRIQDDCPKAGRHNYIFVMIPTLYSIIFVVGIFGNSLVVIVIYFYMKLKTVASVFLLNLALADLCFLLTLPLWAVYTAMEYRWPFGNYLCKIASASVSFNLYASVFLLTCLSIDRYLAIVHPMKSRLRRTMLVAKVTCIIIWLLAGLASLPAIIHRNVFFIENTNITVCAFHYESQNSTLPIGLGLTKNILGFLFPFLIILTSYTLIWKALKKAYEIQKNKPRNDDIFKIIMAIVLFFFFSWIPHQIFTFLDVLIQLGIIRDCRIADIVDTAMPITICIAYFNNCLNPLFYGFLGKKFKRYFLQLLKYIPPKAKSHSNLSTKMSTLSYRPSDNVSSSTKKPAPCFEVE
Briefly: AT1 β-arrestin recruitment counter assay (CHO-K1-AT1). It counts as cell-based. How it is done: as §2, §4

Series [7] in a line: Cytotoxicity, ATP-Lite, Fa2N-4 immortalized human hepatocytes. The class given is cell-based. The conditions noted are these: ATP-lite assay, Fa2-N4 cells. How it is done: (§5) Fa2N-4 immortalized human hepatocytes (Xenotech) or HREC cells were grown to subconfluency in wells of a 96-well plate and exposed to different concentrations of compounds for 24 h after which the cells were washed and the media and compounds replaced. The cells were returned to the incubator for another 24 h. The extent of cell death (cell lysis) was determined by ATP-Lite reagent (Perkin-Elmer).

Series [8] deals with HRECs. Briefly: Cytotoxicity, ATP-Lite, HRECs. It counts as cell-based. The conditions noted are these: tested up to 100 μM. The method, then:
as §5

Setting [9] is: Fa2N-4 immortalized human hepatocytes.

Take `CCNCc1cc(Nc2ccnc3cc(Cl)ccc23)ccc1O` [DEAQ, desethylamodiaquine]: the “APJ antagonism in the APJ cAMP assay” value on APJ [1] was “effective APJ antagonist equipotent to the parent AQ”.

For VEGF, the “Stimulation of HREC endothelial tube formation” value in series [2] is reported as “stimulated the formation of endothelial tubes”. The “Effect on HREC proliferation” value in the series with HRECs [3] was “stimulated HREC proliferation and migration”. Moreover, in the series on HRECs [4], the “Effect on HREC migration” value is “stimulated HREC proliferation and migration”.

Broadly, the IC50 is the concentration needed to halve the response being measured. Turning to `O=C(O)c1ccccc1Nc1ccnc2cc(Cl)ccc12` [Compound 5, 2-((7-chloroquinolin-4-yl)amino)benzoic acid], the IC50 against APJ [1] is 0.937 ± 0.084 µM; on APJ [5] it was above 40 µM; in the series with parental CHO-K1 cells, above 99 µM; in [6], above 40 µM. Further, at APJ [5], the “Antagonism of Ap13-mediated recruitment of β-arrestin” value (from here on “Antagonism … of β-arrestin”) is reported as “neither AQ nor 1, 3, 4, 5, or 6 antagonized”.

On to `NC(=O)c1ccc(Nc2ccnc3cc(Cl)ccc23)cc1` [Compound 1, 4-((7-chloroquinolin-4-yl)amino)benzamide], for which the IC50 was 0.556 ± 0.105 µM on APJ [1], above 99 µM at APJ [5], above 99 µM with parental CHO-K1 cells and above 40 µM in [6]. Moreover, the “Antagonism … of β-arrestin” value at APJ [5] is “neither AQ nor 1, 3, 4, 5, or 6 antagonized”. The same molecule registered an IC50 at 48 h in series [7] (setting [9]) above 50 µM.

`COc1ccc(Nc2ccnc3cc(Cl)ccc23)cc1` [Compound 4, 7-chloro-N-(4-methoxyphenyl)quinolin-4-amine]: the IC50 is 1.42 ± 0.038 µM against APJ [1], above 40 µM against APJ [5], above 99 µM with parental CHO-K1 cells and above 40 µM in [6]. The “Antagonism … of β-arrestin” value at APJ [5] is “neither AQ nor 1, 3, 4, 5, or 6 antagonized”. Besides, the half-maximal inhibitory concentration (IC50) at 48 h in series [7] was above 50 µM.

With `O=C(OCC(O)CO)c1ccccc1Nc1ccnc2cc(Cl)ccc12` (stereo not drawn) [Compound 3, glafenine], the half-inhibitory concentration (IC50) against APJ [1] is 1.15 ± 0.025 µM; against APJ [5] it was above 99 µM; with parental CHO-K1 cells it was above 99 µM; in [6] it was above 99 µM. At APJ [5], the “Antagonism … of β-arrestin” value is recorded as “neither AQ nor 1, 3, 4, 5, or 6 antagonized”. In series [7] (setting [9]), the concentration for half-maximal inhibition (IC50) at 48 h was above 50 µM.

For `O=C(Oc1coc(CSc2ncccn2)cc1=O)c1ccc([N+](=O)[O-])cc1` [ML221, 4-oxo-6-((pyrimidin-2-ylthio)methyl)-4H-pyran-3-yl 4-nitrobenzoate], the “Cytotoxicity to HRECs” value in the series with HRECs [8] was “Neither ML221 nor AQ were significantly toxic”. Besides, the “Effect on Ap13-dependent increase in HREC tube formation” value in [2] (Ap13-induced, concentration-dependent) was “blocked Ap13-dependent increases in tube formation”. The “Effect on VEGF-induced HREC tube formation” value in series [2] (VEGF 100 ng/mL, absence of exogenous Ap13) is reported as “A similar effect was observed”.

Take `CSCC[C@H](NC(=O)[C@@H]1CCCN1C(=O)CNC(=O)[C@H](CCCCN)NC(=O)[C@H](Cc1c[nH]cn1)NC(=O)[C@H](CO)NC(=O)[C@H](CC(C)C)NC(=O)[C@H](CCCNC(=N)N)NC(=O)[C@@H]1CCCN1C(=O)[C@H](CCCNC(=N)N)NC(=O)[C@@H](N)CCC(N)=O)C(=O)N1CCC[C@H]1C(=O)N[C@@H](Cc1ccccc1)C(=O)O` [Ap13, apelin-13]: the “Stimulation of HREC endothelial tube formation” value in series [2] is “stimulated the formation of endothelial tubes”.

`O=C(c1ccccc1Nc1ccnc2cc(Cl)ccc12)N1CCOCC1` [Compound 6, (2-((7-chloroquinolin-4-yl)amino)phenyl)(morpholino) methanone]: the IC50 was 23.5 ± 0.161 µM at APJ [1], above 99 µM against APJ [5], above 99 µM in the series on parental CHO-K1 cells and above 40 µM in series [6]. Also, the “Antagonism … of β-arrestin” value at APJ [5] was “neither AQ nor 1, 3, 4, 5, or 6 antagonized”.
